Source: patent US10716769B2 (GUANGZHOU JTREAT BIOSCI. LTD., priority 2015, dated 2020)

Columns and labels:
HPV 6/11 Virus = assay: HPV detection via fluorescence quantitative PCR in genital warts tissue homogenate; set-up: species or system human papillomavirus
Procedure, shortened: (§1)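 Pooled clinical genital-wart homogenate (1:3 in saline, stored −40° C) mixed 1:1 with test microemulsion or saline and incubated 24 h at 37° C. Extracted DNA assayed by type-specific FQ-PCR for HPV6/11 and 16/18 (40 cycles, 93° C/55° C); initial viral copy number quantified.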

HPV16/18 = assay: as above; set-up: species or system human papillomavirus
Procedure, shortened: as §1

[1] = system: human endometrial carcinoma cell line (JEC); assay: MTT in vitro tumor cell inhibition; format: cell-based; conditions: 3 days
Description: (§2) An effective amount of the above compounds and/or the compositions containing the same used as an active ingredient have an effect on inhibiting the tumor cells. The present invention detects the inhibitory effect of the hydroxy-substituted benzophenone compounds on the proliferation of the in vitro cultured human tumor cells by the methylthiazolyl tetrazolium method.
(§3) The method is used to detect cell viability. […] Particles can be dissolved by dimethyl sulfoxide (DMSO) isopropyl alcohol or 10% acidified SDS (sodium dodecyl sulfate), and a microplate reader is used to measure the OD value at A570 wavelength, which indirectly reflects the number of live cells. The method is used for detection of the cytokines bioactivity, as well as anti-tumor drugs and tumor radiosensitivity and cytotoxicity test, and has the characteristics of being simple, fast, economical, sensitive and accurate and having good reproducibility and no need to use radionuclides. This method has been widely used in screening preclinical anticancer drugs and detecting the drug sensitivity of fresh tumor cells. The method is as below:
(§4) (1) The tumor cell suspension prepared by 0.25% of trypsin digestion and adjusted to a cell concentration of 10^5/ml with RPMI1640 containing 10% fetal calf serum is added to a 96-well plate with 100 μl for each well, cultured 24 hours, and then different dosages of drugs are added with 100 μl/well, for which, the negative control groups, positive control groups and withering wells are set, and 4 parallel wells are set for each group.
(§5) (2) They are continually cultured in incubator containing 5% of CO2 at 37° C. for 24 to 48 hours. MTT solution (5 g/L) is added to each well before the termination of the experiment. The OD value at A570 nm is detected by microplate reader. The OD value at A570 of the negative group without the addition of drugs is taken as a control. The cell survival rate and cell inhibition rate of drugs are calculated according to the following formula: Cell survival rate=(OD value of test group/OD value of control group)×100% Cell inhibition rate (%)=(OD value of the control group−OD value of the test group/(OD value of the control group−OD value of the blank group)
(§6) 1. Tumor cell lines: human glioma cell line (U251), human colon cancer cell line (LOVO), human hepatoma cell line (HepG2), human lung cancer cell line (PC84045), human endometrial carcinoma cell line (JEC), human renal carcinoma (GRC), human gastric cancer cell line (MCG804), human cervical cancer cell line (HeLa), human hepatocellular carcinoma cell line (BEL-7402) and human umbilical vein endothelial cell line (ECV304) purchased from Animal Experimental Center of Zhongshan Medical College, and preserved by the present laboratory.
(§7) The tumor cell lines are cultured in RPMI-1640 medium containing 15% of the newborn bovine serum in a conventional manner, placed in the humidification incubator containing 5% of CO2 for being cultured at 37° C., and are observed for growth by an inverted microscope. A subculture is conducted every about 3-5 days, the cells in logarithmic growth phase are adopted to be digested with 0.25% of trypsin, and the serum-free RPMI-1640 medium is used for culturing the cell suspension; the blood counting plate makes counting, the trypan blue exclusion tests the cell activity, and the cell viability>95% is used for formal tests.
(§8) Liquid preparation: the compounds are labeled with the codes respectively, DMSO is used to dissolve each compound, the bacterial filter is used to remove bacteria, and each compound is prepared into 10^−4 g/ml, 10^−5 g/ml, 10^−6 g/ml and preserved at 4° C. for use. […]

[2] = system: human glioma cell line (U251); assay: MTT in vitro tumor cell inhibition; format: cell-based; conditions: 3 days
Description: as §2, §3, §4, §5, §6, §7, §8

[3] = system: human cervical cancer cell line (HeLa); assay: MTT in vitro tumor cell inhibition; format: cell-based; conditions: 3 days
Description: as §2, §3, §4, §5, §6, §7, §8

[4] = system: human lung cancer cell line (PC84045); assay: MTT in vitro tumor cell inhibition; format: cell-based; conditions: 3 days
Description: as §2, §3, §4, §5, §6, §7, §8

[5] = system: human gastric cancer cell line (MCG804); assay: MTT in vitro tumor cell inhibition; format: cell-based; conditions: 3 days
Description: as §2, §3, §4, §5, §6, §7, §8

[6] = system: human colon cancer cell line (LOVO); assay: MTT in vitro tumor cell inhibition; format: cell-based; conditions: 3 days
Description: as §2, §3, §4, §5, §6, §7, §8

[7] = system: human hepatoma cell line (HepG2); assay: MTT in vitro tumor cell inhibition; format: cell-based; conditions: 3 days
Description: as §2, §3, §4, §5, §6, §7, §8

[8] = 24 hours after addition into the tissue homogenate of genital warts
[9] = genital warts tissue homogenate, 37° C., 24 hours, FQ-PCR

`O=C(c1ccccc1)c1ccc(O)c(O)c1O` [2,3,4-trihydroxybenzophenone] was tested, and the “HPV 6/11 virus detection, in words” value (HPV 6/11 Virus; [8]) was “can no longer be detected”, the “HPV 6/11 Virus” value (HPV 6/11 Virus; [9]) was 0 copy/ml and the “HPV16/18 virus detection, in words” value (HPV16/18; [8]) was “can no longer be detected”. It also gave an HPV16/18 (HPV16/18; [9]) of 0 copy/ml, an Inhibitory rate % ([1]; 10^−4 g/ml) of 86.79% and an Inhibitory rate % ([1]; 10^−5 g/ml) of 40.97%. For the same compound, the “Inhibitory rate, sensitivity class” value ([1]; 10^−6 g/ml) was “insensitive (<30% means insensitive)”, the Inhibitory rate % ([2]; U251, 10^−4 g/ml) was 85.42% and the Inhibitory rate % ([2]; U251, 10^−5 g/ml) was 43.57%. The “Inhibitory rate, sensitivity class” value ([2]; U251, 10^−6 g/ml) was “insensitive (<30% means insensitive)”, the Inhibitory rate % ([3]; 10^−4 g/ml) was 89.81% and the Inhibitory rate % ([3]; 10^−5 g/ml) was 34.53%. The “Inhibitory rate, sensitivity class” value ([3]; 10^−6 g/ml) was “insensitive (<30% means insensitive)”, the Inhibitory rate % ([4]; PC84045, 10^−4 g/ml) was 85.75% and the Inhibitory rate % ([4]; PC84045, 10^−5 g/ml) was 32.79%. For the same compound, the “Inhibitory rate, sensitivity class” value ([4]; PC84045, 10^−6 g/ml) was “insensitive (<30% means insensitive)”, the Inhibitory rate % ([5]; MCG804, 10^−4 g/ml) was 87.14% and the Inhibitory rate % ([5]; MCG804, 10^−5 g/ml) was 62.75%. For the same compound, the “Inhibitory rate, sensitivity class” value ([5]; MCG804, 10^−6 g/ml) was “insensitive (<30% means insensitive)”, the Inhibitory rate % ([6]; 10^−4 g/ml) was 90.02% and the Inhibitory rate % ([6]; 10^−5 g/ml) was 46.78%. For the same compound, the “Inhibitory rate, sensitivity class” value ([6]; 10^−6 g/ml) was “insensitive (<30% means insensitive)”, the Inhibitory rate % ([7]; HepG2, 10^−4 g/ml) was 93.40% and the Inhibitory rate % ([7]; HepG2, 10^−5 g/ml) was 58.05%. For the same compound, the “Inhibitory rate, sensitivity class” value ([7]; HepG2, 10^−6 g/ml) was “insensitive (<30% means insensitive)”.
